We go through 24 compounds from patent publication US20250263405A1, “HISTONE DEACETYLASE 6 INHIBITOR COMPOUNDS AND USES THEREOF” (VALO HEALTH, INC., priority 2021, published 2025).

pIC50: −log10 of the molar value. Some results are limits rather than exact numbers.

For orientation: pIC50 means the negative decadic logarithm of the IC50, by convention in mol/L.

HDAC6, sequence (Q9UBN7 whole entry): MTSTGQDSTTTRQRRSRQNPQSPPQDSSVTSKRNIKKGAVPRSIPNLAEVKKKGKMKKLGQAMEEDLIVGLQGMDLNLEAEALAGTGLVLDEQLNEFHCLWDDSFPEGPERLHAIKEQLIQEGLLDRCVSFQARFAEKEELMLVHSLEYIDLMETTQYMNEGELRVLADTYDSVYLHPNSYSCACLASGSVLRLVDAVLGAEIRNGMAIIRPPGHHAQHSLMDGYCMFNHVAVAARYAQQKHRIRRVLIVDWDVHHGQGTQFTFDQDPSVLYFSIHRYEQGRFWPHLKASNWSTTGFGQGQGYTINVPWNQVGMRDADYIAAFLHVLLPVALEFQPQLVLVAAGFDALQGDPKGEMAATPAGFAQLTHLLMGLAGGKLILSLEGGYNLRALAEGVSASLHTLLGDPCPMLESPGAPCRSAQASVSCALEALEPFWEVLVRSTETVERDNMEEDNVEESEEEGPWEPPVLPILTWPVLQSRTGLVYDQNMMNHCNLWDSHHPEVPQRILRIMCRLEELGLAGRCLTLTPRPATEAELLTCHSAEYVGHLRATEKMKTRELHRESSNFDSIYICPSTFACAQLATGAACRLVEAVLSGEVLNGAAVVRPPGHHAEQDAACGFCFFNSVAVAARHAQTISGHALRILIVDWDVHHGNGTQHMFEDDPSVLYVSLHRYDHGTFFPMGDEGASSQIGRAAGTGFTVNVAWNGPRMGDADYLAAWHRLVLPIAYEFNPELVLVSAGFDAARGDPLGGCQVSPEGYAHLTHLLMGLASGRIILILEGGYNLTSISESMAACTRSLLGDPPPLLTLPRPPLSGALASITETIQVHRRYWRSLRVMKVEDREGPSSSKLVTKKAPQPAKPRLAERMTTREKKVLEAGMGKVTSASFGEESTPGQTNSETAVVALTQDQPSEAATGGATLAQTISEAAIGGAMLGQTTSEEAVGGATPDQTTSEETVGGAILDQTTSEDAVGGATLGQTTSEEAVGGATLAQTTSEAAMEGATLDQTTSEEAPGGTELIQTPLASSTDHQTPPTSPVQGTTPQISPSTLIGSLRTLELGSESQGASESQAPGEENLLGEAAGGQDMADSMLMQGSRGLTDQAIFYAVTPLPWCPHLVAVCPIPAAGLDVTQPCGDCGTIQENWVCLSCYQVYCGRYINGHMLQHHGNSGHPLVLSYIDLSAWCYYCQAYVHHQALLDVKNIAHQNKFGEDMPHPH

This test deals with HDAC6 (Homo sapiens (Human), UniProt Q9UBN7). The experiment in a line: HDAC6 TR-FRET displacement assay. The format is binding. Particulars: displacement of fluorescein labeled tracer from HDAC6; 2 nM HDAC6, 1 nM tracer, 0.5 nM Tb-anti-GST antibody; 30 min pre-incubation, 6 hours at 25° C. The text has this:
HDAC6 and Tb-anti-GST antibody were purchased from Signal Chem (cat #PC124) and Cisbio (cat #61GSTTAH), respectively. HEPES, pH 7.5 was purchased from Teknova (Cat #H1575). All other buffer components, NaCl (cat #S5150), KCl (cat #60121), Triton X-100 (cat #T9284), GSH (cat #G4251), BGG (cat #G5009), and BSA (cat #A2153) were purchased from SIGMA.
Displacement of fluorescein labeled tracer 2-(6-hydroxy-3-oxo-3H-xanthen-9-yl)-5-({[5-(4-{[7-(hydroxycarbamoyl)-2H,3H,4H,5H-thieno[2,3-f][1,4]oxazepine-4-carbonyl]amino}phenoxy)pentyl]carbamothioyl}amino)benzoic acid from HDAC6 was measured in vitro using a TR-FRET assay. The assays were performed in 1536-well plates in a total volume of 6 μL in assay buffer consisting of 50 mM HEPES pH 7.5, 50 mM NaCl, 50 mM KCl, 0.01% Triton X-100, 0.5 mM GSH, 0.03% BGG, 0.01% BSA.
For concentration response curves (IC50 determination), Compounds were serially diluted 3-fold from 2 mM highest concentration to generate a 10-point concentration gradient. To perform the assay, 30 nL of compound gradient solutions were transferred to the assay plate using the ECHO acoustic dispenser to achieve a final concentration range of 10 μM to 0.000508 uM in 6 μL reaction. 3 μL of HDAC6 in assay buffer were added to the assay plates and pre-incubate at room temp. for 30 mins. After pre-incubation, 3 μL of the tracer and TB-anti-GST antibody mix were added to the assay plates. The final concentrations of HDAC6, tracer, and TB-anti-GST antibody for each assay are 2 nM, 1 nM, and 0.5 nM, respectively. Binding reactions were equilibrated at 25° C. for an additional 6 hours, then read in endpoint mode on the BMG PheraStar (BMG labtech) equipped with a 337-520-490 optical module. The ratio of the 520/490 nm emission was calculated to determine the relative amounts of HDAC6 and tracer complex residue in each well.
The percent inhibition of HDAC6 (IC50) was calculated according to the following equation.
As set forth in Table 1, “A” indicates an HDAC6 IC50 value of less than 200 nM; “B” indicates an HDAC6 IC50 value of greater than or equal to 200 nM and less than 500 nM; and “C” indicates an HDAC6 IC50 value of greater than or equal to 500 nM and less than 5 μM.
(TR-FRET usually uses a lanthanide donor and a delayed reading to cut background.)
In turn, `C[C@H]1COc2cc(-c3noc(C(F)(F)F)n3)ccc2CN1C` [Compound 35, (S)-3,4-dimethyl-8-(5-(trifluoromethyl)-1,2,4-oxadiazol-3-yl)-2,3,4,5-tetrahydrobenzo[f][1,4]oxazepine] gave a pIC50 of 6.30 to 6.70.
For `CC(C)C(=O)N1Cc2c(F)cc(-c3noc(C(F)(F)F)n3)cc2OC[C@@H]1C` [Compound 38, 1-[(3S)-6-fluoro-3-methyl-8-[5-(trifluoromethyl)-1,2,4-oxadiazol-3-yl]-3,5-dihydro-2H-1,4-benzoxazepin-4-yl]-2-methylpropan-1-one], the pIC50 was greater than 6.70.
For the compound `COCC1(C(=O)N2Cc3c(F)cc(-c4noc(C(F)(F)F)n4)cc3OC[C@@H]2C)COC1` [Compound 30, (3S)-6-fluoro-4-{[3-(methoxymethyl)oxetan-3-yl]carbonyl}-3-methyl-8-[5-(trifluoromethyl)-1,2,4-oxadiazol-3-yl]-3,5-dihydro-2H-1,4-benzoxazepine], the pIC50 is greater than 6.70.
As to `CC1(C(=O)N2Cc3ccc(-c4nnc(C(F)F)o4)cc3OC[C@@H]2c2ccccc2)CCOCC1` [Compound 3, (S)-(8-(5-(difluoromethyl)-1,3,4-oxadiazol-2-yl)-3-phenyl-2,3-dihydrobenzo[f][1,4]oxazepin-4(5H)-yl)(4-methyltetrahydro-2H-pyran-4-yl)methanone], the pIC50 was greater than 6.70.
Take `CC1(C(=O)N2CCOc3cc(-c4noc(C(F)(F)F)n4)cc(F)c3C2)CCOCC1` [Compound 28, 6-fluoro-4-[(4-methyloxan-4-yl)carbonyl]-8-[5-(trifluoromethyl)-1,2,4-oxadiazol-3-yl]-3,5-dihydro-2H-1,4-benzoxazepine]: the pIC50 was greater than 6.70.
Under `C[C@H]1COc2cc(-c3noc(C(F)(F)F)n3)cc(F)c2CN1C(=O)CN(C)C` [Compound 43, (S)-2-(dimethylamino)-1-(6-fluoro-3-methyl-8-(5-(trifluoromethyl)-1,2,4-oxadiazol-3-yl)-2,3-dihydrobenzo[f][1,4]oxazepin-4(5H)-yl)ethan-1-one] stands 6.30 to 6.70; under `CC(C)(C)C(=O)N1Cc2c(F)cc(-c3noc(C(F)(F)F)n3)cc2OC[C@@H]1c1ccccc1` [Compound 15, (S)-1-(6-fluoro-3-phenyl-8-(5-(trifluoromethyl)-1,2,4-oxadiazol-3-yl)-2,3-dihydrobenzo[f][1,4]oxazepin-4(5H)-yl)-2,2-dimethylpropan-1-one], 6.30 to 6.70; under `C[C@H]1COc2cc(-c3noc(C(F)(F)F)n3)cc(F)c2CN1C(=O)C1CCOCC1` [Compound 39, (3S)-6-fluoro-3-methyl-4-[(oxan-4-yl)carbonyl]-8-[5-(trifluoromethyl)-1,2,4-oxadiazol-3-yl]-3,5-dihydro-2H-1,4-benzoxazepine], greater than 6.70.
`C[C@H]1COc2cc(-c3noc(C(F)(F)F)n3)cc(F)c2CN1C(=O)C(F)(F)F` [Compound 24, (S)-2,2,2-trifluoro-1-(6-fluoro-3-methyl-8-(5-(trifluoromethyl)-1,2,4-oxadiazol-3-yl)-2,3-dihydrobenzo[f][1,4]oxazepin-4(5H)-yl)ethan-1-one] gave a pIC50 greater than 6.70.
In the case of `O=C(N1Cc2ccc(-c3noc(C(F)(F)F)n3)cc2OC[C@@H]1c1ccccc1)C(F)(F)F` [Compound 6, (S)-2,2,2-trifluoro-1-(3-phenyl-8-(5-(trifluoromethyl)-1,2,4-oxadiazol-3-yl)-2,3-dihydrobenzo[f][1,4]oxazepin-4(5H)-yl)ethan-1-one], the pIC50 was 5.30 to 6.30.
Then `CC1(C(=O)N2Cc3ccc(-c4noc(C(F)(F)F)n4)cc3OC[C@@H]2c2ccccc2)CCCOC1` (single isomer, unassigned) [Compound 14], with 5.30 to 6.30.
`CC(=O)N1Cc2c(F)cc(-c3noc(C(F)(F)F)n3)cc2OC[C@@H]1C` [Compound 25, 1-[(3S)-6-fluoro-3-methyl-8-[5-(trifluoromethyl)-1,2,4-oxadiazol-3-yl]-3,5-dihydro-2H-1,4-benzoxazepin-4-yl]ethanone]: the pIC50 is 6.30 to 6.70.
Under `C[C@H]1COc2cc(-c3noc(C(F)(F)F)n3)ccc2CN1CC(F)(F)F` [Compound 36, (S)-3-methyl-4-(2,2,2-trifluoroethyl)-8-(5-(trifluoromethyl)-1,2,4-oxadiazol-3-yl)-2,3,4,5-tetrahydrobenzo[f][1,4]oxazepine] stands 5.30 to 6.30; under `CC1(C(=O)N2Cc3ccc(-c4noc(C(F)(F)F)n4)cc3OC[C@@H]2c2ccccc2)CCOCC1` [Compound 4, (S)-(4-methyltetrahydro-2H-pyran-4-yl)(3-phenyl-8-(5-(trifluoromethyl)-1,2,4-oxadiazol-3-yl)-2,3-dihydrobenzo[f][1,4]oxazepin-4(5H)-yl)methanone], greater than 6.70.
Compound `COC[C@H]1COc2cc(-c3noc(C(F)(F)F)n3)ccc2CN1C(=O)C1(C)CCOCC1` [Compound 26, (3S)-3-(methoxymethyl)-4-[(4-methyloxan-4-yl)carbonyl]-8-[5-(trifluoromethyl)-1,2,4-oxadiazol-3-yl]-3,5-dihydro-2H-1,4-benzoxazepine] showed a negative-log IC50 (pIC50) greater than 6.70.
In the case of `COCC1(C(=O)N2Cc3c(F)cc(-c4noc(C(F)(F)F)n4)cc3OC[C@@H]2C)CC1` [Compound 31, (3S)-6-fluoro-4-{[1-(methoxymethyl)cyclopropyl]carbonyl}-3-methyl-8-[5-(trifluoromethyl)-1,2,4-oxadiazol-3-yl]-3,5-dihydro-2H-1,4-benzoxazepine], the pIC50 was 6.30 to 6.70.
`C[C@H]1COc2cc(-c3noc(C(F)(F)F)n3)cc(F)c2CN1C(=O)C1(C)COC1` [Compound 1, (S)-(6-fluoro-3-methyl-8-(5-(trifluoromethyl)-1,2,4-oxadiazol-3-yl)-2,3-dihydrobenzo[f][1,4]oxazepin-4(5H)-yl)(3-methyloxetan-3-yl)methanone] showed a pIC50 greater than 6.70.
Then `COC[C@H]1COc2cc(-c3noc(C(F)(F)F)n3)ccc2CN1C(=O)C(C)(C)C` [Compound 27, 1-[(3S)-3-(methoxymethyl)-8-[5-(trifluoromethyl)-1,2,4-oxadiazol-3-yl]-3,5-dihydro-2H-1,4-benzoxazepin-4-yl]-2,2-dimethylpropan-1-one], with greater than 6.70; and `C[C@H]1COc2cc(-c3noc(C(F)(F)F)n3)ccc2CN1C(=O)C1(C)CCOCC1` [Compound 16, (3S)-3-methyl-4-[(4-methyloxan-4-yl)carbonyl]-8-[5-(trifluoromethyl)-1,2,4-oxadiazol-3-yl]-3,5-dihydro-2H-1,4-benzoxazepine], with greater than 6.70.
`COCC1(C(=O)N2Cc3ccc(-c4noc(C(F)(F)F)n4)cc3OC[C@@H]2c2ccccc2)COC1` [Compound 7, (3S)-4-{[3-(methoxymethyl)oxetan-3-yl]carbonyl}-3-phenyl-8-[5-(trifluoromethyl)-1,2,4-oxadiazol-3-yl]-3,5-dihydro-2H-1,4-benzoxazepine] showed a pIC50 greater than 6.70.
Then `CC(C)(C)OC(=O)N1Cc2ccc(-c3noc(C(F)(F)F)n3)cc2OC[C@@H]1c1ccccc1` [Compound 8, tert-butyl (S)-3-phenyl-8-(5-(trifluoromethyl)-1,2,4-oxadiazol-3-yl)-2,3-dihydrobenzo[f][1,4]oxazepine-4(5H)-carboxylate], with 5.30 to 6.30.
As for `C[C@H]1COc2cc(-c3noc(C(F)(F)F)n3)cc(F)c2CN1C(=O)C1(C)CCOCC1` [Compound 18, (3S)-6-fluoro-3-methyl-4-[(4-methyloxan-4-yl)carbonyl]-8-[5-(trifluoromethyl)-1,2,4-oxadiazol-3-yl]-3,5-dihydro-2H-1,4-benzoxazepine], the pIC50 was greater than 6.70.
In turn, `C[C@H]1COc2cc(-c3noc(C(F)(F)F)n3)cc(F)c2CN1C(=O)CCN(C)C` [Compound 42, (S)-3-(dimethylamino)-1-(6-fluoro-3-methyl-8-(5-(trifluoromethyl)-1,2,4-oxadiazol-3-yl)-2,3-dihydrobenzo[f][1,4]oxazepin-4(5H)-yl)propan-1-one] had a pIC50 of 6.30 to 6.70.
Then `CCN1CCC(C)(C(=O)N2Cc3c(F)cc(-c4noc(C(F)(F)F)n4)cc3OC[C@@H]2C)CC1` [Compound 55, (S)-(1-ethyl-4-methylpiperidin-4-yl)(6-fluoro-3-methyl-8-(5-(trifluoromethyl)-1,2,4-oxadiazol-3-yl)-2,3-dihydrobenzo[f][1,4]oxazepin-4(5H)-yl)methanone], with 6.30 to 6.70.
